Values joined by “and” are separate entries in the source; they are usually repeats but may differ in a detail not shown here. Equal values may be shown once.
Columns and labels:
Aβ(1-40) [1] = target: T1, Aβ(1-40) (Homo sapiens, UniProt P05067); test: BASSR (Beta-Amyloid Self-Seeding Radioassay), inhibitors of self-seeded amyloid fibril growth; format: biochemical; conditions: 30 μM soluble Aβ(1-40) + 125I-labeled Aβ(1-40), 37° C., 3 to 5 hours; replicate values; letter = synthetic lot; ppt = precipitate; V-shaped = inhibition followed by precipitation
T1 construct: […]; purchased Bachem, Torrance, Calif
T1 sequence (P05067 672-711 limits assumed): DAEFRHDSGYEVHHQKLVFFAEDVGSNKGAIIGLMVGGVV
Method in brief: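 Self-seeded growth of ^125I-labeled Aβ(1-40) fibrils in 50 mM sodium phosphate pH 7.5, 100 mM NaCl, 0.02% NaN3, 1 M urea; compound (3-fold dilutions from 100 μM final) preincubated 10 min on ice, then 3–5 h at 37° C. Fibrils collected by vacuum filtration on 0.2 μm filters and counted for radioactivity.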

Aβ(1-40) [2] = target: T1, Aβ(1-40); test: BASST (Beta-Amyloid Self-Seeding, Thioflavin T), inhibitors of self-seeded amyloid fibril growth; format: biochemical; conditions: 30 μM soluble Aβ(1-40), 37° C., 3 to 5 hours, thioflavin T fluorescence; replicate values; letter = synthetic lot; read-out: BASST (IC50 = μM)
Method in brief: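 Self-seeded Aβ(1-40) fibril growth was run in 50 mM sodium phosphate pH 7.5, 100 mM NaCl, 0.02% NaN3, 1 M urea. Compounds were tested in 3-fold serial dilutions (top 100 μM final): 10 min on ice, then 3–5 h at 37 °C. Fibrils were read by 5 μM thioflavin T fluorescence (ex 440/em 485 nm).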

Aβ (1-40) peptide = target: T2, Aβ (1-40) peptide (Homo sapiens, UniProt P05067); test: BAPA (Beta-Amyloid Peptide Aggregation, pH 6.0, filtration); format: biochemical; conditions: Aβ (1-40) 33 μM, pH 6.0, 2 to 4 hours at room temperature; replicate values; letter = synthetic lot
T2 construct: 10 μL 0.5 mg/mL Aβ (1-40) peptide in 20% HFIP
T2 sequence (P05067 672-711 limits assumed): as above
Method in brief: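 Aggregation of human Aβ (1-40) peptide was measured in an endpoint filtration assay. The peptide was first reduced to monomer with hexafluoroisopropanol (HFIP), then used at 33 μM so it would aggregate at pH 6.0, and incubated for 2 to 4 hours at room temperature. Filter plates were washed with 100 μL phosphate buffer, impregnated with Meltilex, and counted on a Microbeta counter with background correction.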

Aβ (1-42) = target: T3, Aβ (1-42) (Homo sapiens, UniProt P05067); test: BATYM assay (Aβ (1-42) aggregation, Thioflavin T fluorescence); format: biochemical; conditions: Aβ 1-42 final concentration 100 μM, 37° C., 1 day, letter = synthetic lot
T3 construct: Required Aβ (1-42) (California Peptide) was dried from its hexafluoroisopropanol (HFIP) stock solution; purchased California Peptide
T3 sequence (P05067 672-713 limits assumed): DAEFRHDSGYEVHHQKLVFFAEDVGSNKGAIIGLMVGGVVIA
Method in brief: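 Aβ (1-42) (100 μM final, PBS pH 7.4 from DMSO) incubated with compound at 37° C. for 1 day. Aggregation read by ThT (30 μM, glycine-NaOH pH 8.5) fluorescence, ex 440/em 485 nm; inhibition as fluorescence reduction corrected for compound-alone signal, IC50 by curve fitting from two experiments in triplicate.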

| SMILES | IC50 (Aβ(1-40) [1]) | IC50 (Aβ(1-40) [2]) | IC50 (Aβ (1-40) peptide) | IC50 (Aβ (1-42)) | melting point [°C] |
| --- | --- | --- | --- | --- | --- |
| O=C(O)c1cccc(Nc2ccc(CCc3ccc(Cl)c(Cl)c3)cc2)c1 [Example 131, 3-{4-[2-(3,4-Dichloro-phenyl)-ethyl]-phenylamino}-benzoic acid] | > 100 µM | 10 µM | > 60 µM | 93.5 µM | 137 to 138 |
| CCCCN1CCc2cc(C=C3SC(=S)N(CC(=O)O)C3=O)ccc21 [Example 56, {5-[(1-Butyl-2,3-dihydro-1H-indol-5-yl)methylidene]-4-oxo-2-thioxothiazolidin-3-yl}acetic acid] | > 100 µM | 3 µM | 30 µM | 11.5 µM | > 250 |
| CCCCN(CCCC)c1cccc(CCc2ccc(Nc3ccccc3C(=O)O)cc2)c1.Cl [Example 38, 2-{4-[2-(3-Dibutylaminophenyl)ethyl]phenylamino}benzoic acid monohydrochloride] | 20 µM and 10 µM | 3 µM | 184 µM | 23.4 µM | 175 to 180 |
| O=C(O)c1ccccc1Nc1ccc(CCc2ccc(F)c(F)c2)cc1 [Example 122, 2-{4-[2-(3,4-Difluoro-phenyl)-ethyl]-phenylamino}-benzoic acid] | > 100 µM | 2 µM | > 60 µM | > 100 µM | 184 to 185 |
| O=C(O)c1ccccc1Nc1ccc(CCCCCc2ccc(Cl)c(Cl)c2)cc1 [Example 135, 2-{4-[5-(3,4-Dichloro-phenyl)-pentyl]-phenylamino}-benzoic acid] | > 100 µM | 1.2 µM | > 60 µM | 31.2 µM | 106 to 108 |
| CN(C)c1cccc(CCCc2ccc(Nc3ccccc3C(=O)O)cc2)c1 [Example 28, 2-{4-[3-(3-Dimethylaminophenyl)propyl]phenylamino}benzoic acid] | > 100 µM | 5 µM | 27 µM | 42.3 µM | 115 to 117 |
| O=C(O)c1cc([N+](=O)[O-])ccc1Nc1ccc(CCCc2ccc(Cl)c(Cl)c2)cc1 [Example 15, 2-{4-[3-(3,4-Dichlorophenyl)propyl]phenylanino}-5-nitrobenzoic acid] | 16 µM and 12 µM and 15 µM and 11 µM | 1 µM and 1.2 µM | > 60 µM and 7 µM | 8.52 µM and 7.26 µM and 7.07 µM | 153 to 155 |
| O=C(O)c1cccnc1Nc1ccc(CCc2ccc(Cl)c(Cl)c2)cc1 [Example 72, 2-{4-[2-(3,4-Dichloro-phenyl)-ethyl]-phenylamino}-nicotinic acid] | 40 µM and 15 µM and 12 µM | 2 µM and 2.5 µM | > 60 µM | 74.8 µM | 168 to 171 |
| CN(C)c1ccc(Nc2ccc(CCc3ccc(Cl)c(Cl)c3)cc2)c(C(=O)O)c1 [Example 80, 2-{4-[2-(3,4-Dichloro-phenyl)-ethyl]-phenylamino}-5-dimethylamino-benzoic acid] | > 100 µM | 4 µM | > 60 µM | 24.8 µM | 75 to 80 |
| O=C(O)c1cc([N+](=O)[O-])ccc1Nc1ccc(CCc2cccc(Cl)c2)cc1 [Example 73, 2-{4-[2-(3-Chloro-phenyl)-ethyl]-phenylamino}-5-nitro-benzoic acid] | 25 µM and 35 µM and 40 µM | 0.3 µM | > 60 µM | 9.43 µM | 192.5 to 194.5 |
| O=C(O)c1cc([N+](=O)[O-])ccc1Nc1ccc(CCc2cccc(C(F)(F)F)c2Cl)cc1 [Example 63] | 15 µM (2×) and 18 µM | 1 µM | 45 µM | 9.43 µM | 207 to 209 |
| CC(=O)Nc1cccc(CCc2ccc(Nc3ccccc3C(=O)O)cc2)c1 [Example 36, 2-{4-[2-(3-Acetylaminopheny)ethyl]phenylamino}benzoic acid] | > 100 µM | > 100 µM | 149 µM | > 100 µM | 213 to 215 |
